The values that follow are results of earlier work, collected in patent US7105537B2, “2-substituted cyclic amines as calcium sensing receptor modulators” (Bristol-Myers Squibb Company, priority 2003, dated 2006).

For series [1] the following is noted: intravenous bolus injection.
In series [2] the test system is osteopenic ovariectomized (OVX) rats. The settings on record: oral administration, in the presence of an anti-resorptive agent.
Series [3] concerns postmenopausal women. To be noted: placebo-controlled trial.

Consider `CC(C)(Cc1ccc2ccccc2c1)NC[C@@H](O)COc1cccc(Cl)c1C#N` [NPS-2143], for which the “serum PTH” value in series [1] is given as “transient increase in serum PTH”. Further, the bone mass result in series [2] is “increase in bone mas”.
For “PTH peptide fragment (1–34): "the PTH peptide fragment (1–34) was shown to reduce the risk of spine fractures and non-traumatic, non-spine fractures" (SVSEIQLMHNLGKHLNSMERVEWLRKKLQDVHNF; Parathyroid hormone; UniProt P01270 32-65, looked up, fragment)”, in series [3], the “reduction of the risk of non-traumatic, non-spine fractures” value is reported as 54% and the “reduction of the risk of spine fractures” value is given as 65%.
